Reference: article PMC6630699, “Synthesis and Cytotoxicity Evaluation of DOTA-Conjugates of Ursolic Acid” (Molecules, 2019)
“Also recorded” adds a separate entry of the source.

Tests used:
[1] = system: HT29 (colon adenocarcinoma); assay: SRB cytotoxicity assay, HT29; type: cell-based, human; details: for EC50: Homo sapiens, HT-29, SRB assay, 72 h of treatment; for Selectivity index SI HT29: SI = EC50 (NIH 3T3)/EC50 (HT29)
From the text: (§1) Due to cytotoxicity evaluation, the prepared UA-DOTA conjugates were screened in rhodamine B assays employing a series of human tumor cell lines and non-malignant mouse fibroblasts (NIH 3T3).
(§2) The cell lines used are human cancer cell lines: A2780 (ovarian carcinoma), HT29 (colon adenocarcinoma), MCF-7 (breast adenocarcinoma), A375 (melanoma), FaDu (pharynx squamous cell carcinoma) and non-malignant mouse fibroblasts NIH 3T3; all cell lines were obtained from the Department of Oncology (Martin-Luther-University Halle-Wittenberg). Cultures were maintained as monolayers in RPMI 1640 medium with L-glutamine (Capricorn Scientific GmbH, Ebsdorfergrund, Germany) supplemented with 10% heat inactivated fetal bovine serum (Sigma-Aldrich Chemie GmbH, Steinheim, Germany) and penicillin/streptomycin (Capricorn Scientific GmbH, Ebsdorfergrund, Germany) at 37 °C in a humidified atmosphere with 5% CO2.
(§3) The cytotoxicity of the compounds was evaluated using the sulforhodamine-B (Kiton-Red S, ABCR) micro culture colorimetric assay. Cells were seeded into 96-well plates on day 0 at appropriate cell densities to prevent confluence of the cells during the period of experiment. After 24 h, the cells were treated with six different concentrations (1, 3, 7, 12, 20, and 30 µM) minimum. The final concentration of DMSO/DMF never exceeded 0.5%, which was non-toxic to the cells. After a 72-h treatment, the supernatant medium from the 96-well plates was discarded, the cells were fixed with 10% trichloroacetic acid (TCA) and allowed to rest at 4 °C. After 24 h fixation, the cells were washed in a strip washer and dyed with SRB solution (100 µL, 0.4%, in 1% acetic acid) for about 20 min. After dying, the plates were washed four times with 1% acetic acid to remove the excess of the dye and allowed to air-dry overnight. Tris base solution (200 µL, 10 mM) was added to each well and absorbance was measured at λ = 570 nm using a 96 well plate reader (Tecan Spectra, Crailsheim, Germany). The EC50 values were averaged from three independent experiments performed each in triplicate calculated from semi logarithmic dose response curves applying a non-linear 4P Hills-slope equation (GraphPad Prism5; variables top and bottom were set to 100 and 0, respectively).

[2] = system: FaDu (pharynx squamous cell carcinoma); assay: SRB cytotoxicity assay, FaDu; type: cell-based, human; details: for EC50: Homo sapiens, FaDu, SRB assay, 72 h of treatment; for Selectivity index SI FaDu: SI = EC50 (NIH 3T3)/EC50 (FaDu)
From the text: as §1, §2, §3

human tumor cell lines = assay: SRB cytotoxicity assay, statements over the whole cell line panel; type: cell-based; details: summary over all tumor cell lines
From the text: as §1, §2, §3

[3] = system: A2780 (ovarian carcinoma); assay: SRB cytotoxicity assay, A2780; type: cell-based, human; details: for EC50: SRB assay, 72 h of treatment; for Selectivity index SI A2780: SI = EC50 (NIH 3T3)/EC50 (A2780)
From the text: as §1, §2, §3

[4] = system: non-malignant mouse fibroblasts NIH 3T3; assay: SRB cytotoxicity assay, NIH 3T3; type: cell-based; details: NIH3T3, 72 h of treatment
From the text: as §1, §2, §3

[5] = system: MCF-7 (breast adenocarcinoma); assay: SRB cytotoxicity assay, MCF-7; type: cell-based, human; details: for EC50: Homo sapiens, MCF7, SRB assay, 72 h of treatment; for Selectivity index SI MCF-7: SI = EC50 (NIH 3T3)/EC50 (MCF-7)
From the text: as §1, §2, §3

A375 (melanoma) = assay: SRB cytotoxicity assay, A375; type: cell-based, human; details: for EC50: Homo sapiens, A-375, SRB assay, 72 h of treatment; for Selectivity index SI A375: SI = EC50 (NIH 3T3)/EC50 (A375)
From the text: as §1, §2, §3

A375 cells [6] = assay: Cell cycle investigations (PI, flow cytometry); type: cell-based, human
Protocol: Approximately 2 × 10^5 cells (A375) were seeded in cell culture flasks (25 cm^2), and the cells were allowed to grow up for 24 h. After removing of the used medium, the substance loaded fresh medium was reloaded (or a blank fresh medium as a control). After 24 h or 48 h, respectively, only the adherent cells were harvested, centrifuged (1200 rpm, 4 °C), and washed twice with PBS ((w/w), 1 mL). The cells were counted and approximately 1 × 10^6 cells were fixed with ethanol (70%, 4 °C, 24 h). After centrifugation (4500 rpm, 4 °C) the cells were washed with PBS ((w/w), 1 mL) and centrifuged. The pellet was resuspended in 1 mL RNAse A containing PI buffer (100µL RNAse (100 mg/mL), 15 µL PI solution (1 mg/mL)) and after incubating for 30 min at room temperature in the dark, cells were analyzed using the Attune® FACS machine; collecting data from the BL-2A channel. Doublet cells were excluded from the measurements by plotting BL-2A against BL-2H. For each cell cycle distribution 20,000 events were collected in technical triplicates, each sample was measured in duplicates. Cell cycle distribution was calculated using ModFitLT™ (Verity Software House, Topsham, ME, USA).

A375 cells [7] = assay: Annexin V-FITC/PI assay (flow cytometry); type: cell-based, human
Protocol: Approximately 2 × 10^5 cells (A375) were seeded in cell culture flasks (25 cm^2), and the cells were allowed to grow up for 24 h. After removing of the used medium, the substance loaded fresh medium was reloaded (or a blank fresh medium as a control). After 24 h and 48 h, the cells were harvested, centrifuged (1200 rpm, 4 °C), and washed twice with PBS (w/Ca^2+ and Mg^2+, 1 mL). The cells were counted and approximately 1∙10^6 cells were washed with Annexin V binding buffer (BioLegend®, San Diego, USA) and treated with propidium iodide solution (3 µL, 1 mg/mL) and Annexin V-FITC (5 µL, BioLegend®, San Diego, CA, USA) for 15 min in the dark at room temperature. After adding Annexin V binding buffer (400 µL) the suspension was analyzed using Attune® FACS machine. After gating for living cells, the data from detectors BL-1A and BL-3A were collected (20,000 events) in technical triplicates. The assay was performed in duplicates; cell distribution was calculated using Attune® Software (ThermoFisher Scientific, Braunschweig, Germany).

A375 cells [8] = assay: AO/PI dye exclusion test (fluorescence microscopy); type: cell-based, human
Protocol: Morphological characteristics of cell death were analyzed employing an AO/PI assay using human cancer cell line A375. Approx. 2 × 10^5 cells were seeded in cell culture flasks (25 cm^2), and the cells were allowed to grow up for 24 h. After removing of the used medium, the substance loaded fresh medium was reloaded (or a blank new medium as a control). After 24 h and 48 h, the content of the flask was collected and centrifuged (1200 rpm, 4 °C), the pellet was gently suspended in phosphate-buffered saline (PBS (w/Ca^2+ and Mg^2+), 1 mL) and centrifuged again. The PBS was removed, and the pellet gently suspended in PBS (150 µL) again. The analysis of the cells was performed using a fluorescence microscope after having mixed the cell suspension (10 µL) with a solution of AO/PI (5 µg/mL, 10 µL).

SMILES	EC50 [1] [µM]	EC50 [2] [µM]	EC50 (human tumor cell lines) [µM]	EC50 ([3]; Homo sapiens, A2780, 72 h) [nM]	EC50 [4] [µM]	EC50 [5] [µM]	EC50 (A375 (melanoma)) [nM]	Selectivity index SI HT29 [1]	Selectivity index SI FaDu [2]	Selectivity index SI A2780 [3]	Selectivity index SI MCF-7 [5]	Selectivity index SI A375 (A375 (melanoma))	further results
CC(=O)O[C@H]1CC[C@]2(C)[C@H]3CC=C4[C@@H]5[C@@H](C)[C@H](C)CC[C@]5(C(=O)NCCN5CCN(C(=O)CN6CCN(CC(=O)O)CCN(CC(=O)O)CCN(CC(=O)O)CC6)CC5)CC[C@@]4(C)[C@]3(C)CC[C@H]2C1(C)C [compound 15, 2,2’,2’’-[10-[2-[4-[2-(3β-Acetyloxy-urs-12-en-28-oylamino)ethyl]piperazin-1-yl]-2-oxoethyl]-1,4,7,10-tetraazacyclododecane-1,4,7-triyl]triacetic acid]	> 60	> 60	> 60	> 60000	> 60	> 60	> 60000						melting point: 206 to 210 °C (dec.)
CC(=O)O[C@H]1CC[C@@]2(C)C(CC[C@]3(C)C2CC=C2C4[C@@H](C)[C@H](C)CC[C@]4(C(=O)N4CCN(C(=O)CN5CCN(CC(=O)OC(C)(C)C)CCN(CC(=O)OC(C)(C)C)CCN(CC(=O)OC(C)(C)C)CC5)CC4)CC[C@]23C)C1(C)C (stereo partly drawn) [compound 22, Tri-tert-butyl 2,2’,2’’-[10-[2-[4-(3β-acetyloxy-urs-12-en-28-oyl)piperazin-1-yl]-2-oxoethyl]-1,4,7,10-tetraazacyclododecane-1,4,7-triyl]triacetate]	5.7 ± 0.5	3.7 ± 0.6		1700	4.6 ± 1	4.4 ± 0.7	1500 ± 400	0.81	1.24	2.42	1.05	3.07	cell cycle distribution versus control (A375 cells [6]; A375, 3.0 µM, 48 h): G1/G0, G2/M, and S phase were drastically reduced; also recorded: an increased population of cells with reduced DNA content has been observed in the subG1 region; density plots versus control (A375 cells [7]; A375, 3.0 µM, 24 h): no significant differences in comparison to the control; annexin V-FITC-positive cells (A375 cells [7]; A375, 3.0 µM, 48 h): 32.9%; apoptotic cells (R4) (A375 cells [7]; A375, 3.0 µM, 48 h): 17.4%; vital cells (R3) (A375 cells [7]; A375, 3.0 µM, 48 h, control 86.0%): 66.3%; EC50 [3]: 1900 ± 300 nM; fluorescence microscopic images versus control (A375 cells [8]; A375, 3.0 µM, 24 h): no significant differences in comparison to the control; cell morphology in fluorescence microscopic images (A375 cells [8]; A375, 3.0 µM, 48 h): ruptures of the plasma membrane
CC(=O)O[C@H]1CC[C@@]2(C)C(CC[C@]3(C)C2CC=C2C4[C@@H](C)[C@H](C)CC[C@]4(C(=O)NCCNC(=O)CN4CCN(CC(=O)OC(C)(C)C)CCN(CC(=O)OC(C)(C)C)CCN(CC(=O)OC(C)(C)C)CC4)CC[C@]23C)C1(C)C (stereo partly drawn) [compound 24, Tri-tert-butyl 2,2’,2’’-[10-[2-[2-(3β-acetyloxy-urs-12-en-28-oylamino)ethyl]amino-2-oxoethyl]-1,4,7,10-tetraazacyclododecane-1,4,7-triyl]triacetate]	2.3 ± 0.3	2 ± 0.2	< 2.5	1700 ± 100	1.4 ± 0.1	1.8 ± 0.1	2000 ± 100	0.61	0.70	0.82	0.78	0.70	cell cycle distribution versus control (A375 cells [6]; A375, 4.0 µM, 24 h): decreased number of cells in G1/G0, G2/M, as well as in S phase; also recorded: a large population of cells has been shifted into the subG1 region; annexin V-FITC-positive cells (A375 cells [7]; A375, 4.0 µM, 24 h): 63%; apoptotic cells (R4) (A375 cells [7]; A375, 4.0 µM, 24 h): 51.9%; vital cells (R3) (A375 cells [7]; A375, 4.0 µM, 24 h, control 86.1%): 36.7%; cell morphology in fluorescence microscopic images (A375 cells [8]; A375, 4.0 µM, 24 h): vital cells (green staining) with some of them having ruptured cell membranes
